We go through 23 molecules from patent publication US9133116B2, “Bicyclic compounds” (PANACEA BIOTEC LTD., priority 2010, dated 2015).

In assay [1] the test system is male SWISS albino mice. Kind of assay: Forced Swim Test in mice. Type of assay: in vivo. The note with it: oral, 15 min before test, immobility in last 4 min of 6 min. Here is the method:
This test was conducted according to the method of Li, X., et al., Metabotropic Glutamate 5 Receptor Antagonism Is Associated with Antidepressant-Like Effects in Mice. J Pharmacol Exp Ther., 319(1):254-259 (2006), with slight modifications.
A test compound was suspended in 0.25% CMC, unless otherwise specified, and this solution was orally administered to male SWISS albino mice (7 to 9 week old). 15 min later, the mice were placed in a water tank having a water depth of 15 cm and a water temperature of 25±1° C. and immediately thereafter allowed to swim for 6 min. Then, a time during which the mouse was immobile (immobility time) was measured for the last 4 min.
Cleversys Software (Forced Swim Scan) was used for carrying out Forced Swim Test in mice.

For assay [2], the target named is T1, SERT (Homo sapiens, UniProt P31645).
T1 construct: purchased Perkin Elmer
T1 sequence (P31645 whole entry): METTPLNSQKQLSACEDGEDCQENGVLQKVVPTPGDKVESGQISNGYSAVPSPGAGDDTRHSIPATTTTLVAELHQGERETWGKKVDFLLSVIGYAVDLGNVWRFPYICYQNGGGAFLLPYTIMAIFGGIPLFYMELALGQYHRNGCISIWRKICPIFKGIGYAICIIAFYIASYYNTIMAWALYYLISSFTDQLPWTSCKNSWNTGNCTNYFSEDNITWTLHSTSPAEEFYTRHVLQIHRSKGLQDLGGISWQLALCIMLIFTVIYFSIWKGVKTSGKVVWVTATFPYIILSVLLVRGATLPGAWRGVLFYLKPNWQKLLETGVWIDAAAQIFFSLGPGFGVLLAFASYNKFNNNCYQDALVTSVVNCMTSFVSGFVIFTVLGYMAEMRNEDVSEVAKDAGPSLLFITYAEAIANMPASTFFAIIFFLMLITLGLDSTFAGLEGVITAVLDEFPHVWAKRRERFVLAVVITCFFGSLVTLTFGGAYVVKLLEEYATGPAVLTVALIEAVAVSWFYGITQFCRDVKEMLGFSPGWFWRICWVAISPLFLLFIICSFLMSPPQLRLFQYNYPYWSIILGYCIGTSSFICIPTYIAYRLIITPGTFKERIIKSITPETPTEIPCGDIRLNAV
Briefly: Serotonin Binding Assay ([3H]-Citalopram Binding Assay). Particulars: NE = Not Effective; for inhibition at 0.1 µM / inhibition at 1 µM: 1 h. Here is the method:
2. Serotonin Binding Assay
The Membrane protein of 0.4 mL size vial, with protein concentration of 9.0 mg/ml was bought from Perkin Elmer, stored in −80° C. until required.
[^3H]-Citalopram Binding Assay:
(§1) Each well of 96 well microtitre plate was set up to contain the following:
The microtitre plates were incubated at 25° C. for 60 min; reaction was stopped by filtration in GF/B filter plate (presoaked in 0.5% Polyethylenimine) and then added 50 μL of microscint 40. Radioactivity was measured on Liquid Scintillation counter (Perkin Elmer).

Assay [3] addresses T2, NET (Homo sapiens, UniProt P23975).
T2 construct: purchased Perkin Elmer
Kind of assay: Norepinephrine Binding Assay ([3H]-Nisoxetine Binding Assay). Particulars: NE = Not Effective; for inhibition at 0.1 µM / inhibition at 1 µM: 1 h. Here is the method:
1. Norepinephrine Binding Assay
The Membrane protein of 0.4 mL size vial, with protein concentration of 3.0 mg/ml was bought from Perkin Elmer, stored in −80° C. until required.
[^3H]-Nisoxetine Binding Assay:
as §1
The microtitre plates were incubated at 4° C. for 60 mins; reaction was stopped by filtration in GF/B filter plate (presoaked in 0.5% Polyethylenimine) and then added 50 μl of microscint 40. Radioactivity was measured on Liquid Scintillation counter (Perkin Elmer).

The target of assay [4] is T3, DAT (Homo sapiens, UniProt Q01959).
T3 construct: purchased Perkin Elmer
T3 sequence (Q01959 whole entry): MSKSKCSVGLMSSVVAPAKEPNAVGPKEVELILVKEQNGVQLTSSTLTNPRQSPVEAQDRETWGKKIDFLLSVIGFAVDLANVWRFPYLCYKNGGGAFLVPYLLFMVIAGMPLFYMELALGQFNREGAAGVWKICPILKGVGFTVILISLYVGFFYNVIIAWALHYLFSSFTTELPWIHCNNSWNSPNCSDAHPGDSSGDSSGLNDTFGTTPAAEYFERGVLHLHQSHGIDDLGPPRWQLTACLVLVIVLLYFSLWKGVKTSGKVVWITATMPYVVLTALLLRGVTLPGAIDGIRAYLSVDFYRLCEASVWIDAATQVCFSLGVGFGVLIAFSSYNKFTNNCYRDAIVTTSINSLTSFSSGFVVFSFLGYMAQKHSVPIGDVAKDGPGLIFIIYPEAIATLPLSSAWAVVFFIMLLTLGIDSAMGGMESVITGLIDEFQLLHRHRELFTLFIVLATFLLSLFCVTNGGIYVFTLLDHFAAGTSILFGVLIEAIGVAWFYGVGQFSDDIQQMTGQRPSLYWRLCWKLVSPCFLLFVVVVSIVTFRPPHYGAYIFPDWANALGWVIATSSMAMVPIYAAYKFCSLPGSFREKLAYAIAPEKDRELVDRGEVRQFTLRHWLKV
Briefly: Dopamine Binding Assay ([3H]-WIN35,428 Binding Assay). Particulars: NE = Not Effective; for inhibition at 1 µM / inhibition at 0.1 µM: 2 h; for inhibition at 0.1 µM: read-out: DAT % WIN 35428 displacement 100 nM, 100 nM test compound. As for the experimental part:
3. Dopamine Binding Assay
The Membrane protein of 0.4 mL size vial, with protein concentration of 12 mg/mL was bought from Perkin Elmer, stored in −80° C. until required.
[^3H]-WIN35,428 Binding Assay:
as §1
The microtitre plates were incubated at 4° C. for 120 min; reaction was stopped by filtration in GF/B filter plate (presoaked in 0.5% Polyethylenimine) and then added 50 μL of microscint 40. Radioactivity was measured on Liquid Scintillation counter (Perkin Elmer).

[5] abbreviates: read-out: SERT % Citalopram displacement 100 nM, 100 nM test compound.
[6] abbreviates: read-out: SERT % Citalopram displacement 1 μM, 1 μM test compound.
Setting [7] is: read-out: NET % Nisoxetine displacement 100 nM, 100 nM test compound.
Where [8] appears, read: read-out: NET % Nisoxetine displacement 1 μM, 1 μM test compound.
The mark [9] stands for this setting: read-out: DAT % WIN 35428 displacement 1 μM, 1 μM test compound.
The mark [10] stands for this setting: 1 μM test compound, read-out: NET % Nisoxetine displacement 1 μM.
Setting [11] is: 1 μM test compound, read-out: DAT % WIN 35428 displacement 1 μM.
[12] abbreviates: 100 nM test compound, read-out: SERT % Citalopram displacement 100 nM.
[13] abbreviates: 1 μM test compound, read-out: SERT % Citalopram displacement 1 μM.

Molecules are shown by their SMILES. Read-outs that look alike come from different tables or passages of the source. Marks after values point to notes of the source that are not given here.

T2 sequence (P23975 whole entry): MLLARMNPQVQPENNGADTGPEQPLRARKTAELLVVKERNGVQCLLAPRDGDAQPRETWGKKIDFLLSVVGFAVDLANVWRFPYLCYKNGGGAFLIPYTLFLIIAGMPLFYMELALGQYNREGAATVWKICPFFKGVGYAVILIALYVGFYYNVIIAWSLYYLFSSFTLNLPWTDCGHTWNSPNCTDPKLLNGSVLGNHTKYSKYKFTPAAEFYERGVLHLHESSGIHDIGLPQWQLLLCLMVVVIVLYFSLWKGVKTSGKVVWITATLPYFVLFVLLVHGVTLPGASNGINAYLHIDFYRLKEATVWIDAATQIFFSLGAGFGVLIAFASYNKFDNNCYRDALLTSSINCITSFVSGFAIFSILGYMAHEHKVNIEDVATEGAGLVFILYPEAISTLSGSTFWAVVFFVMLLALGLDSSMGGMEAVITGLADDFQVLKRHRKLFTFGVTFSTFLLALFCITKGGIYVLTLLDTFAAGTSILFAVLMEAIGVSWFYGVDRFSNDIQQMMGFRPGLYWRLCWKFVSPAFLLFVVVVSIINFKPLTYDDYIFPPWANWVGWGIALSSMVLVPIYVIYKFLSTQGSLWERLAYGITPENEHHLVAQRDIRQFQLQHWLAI

Consider `CON=C(c1ccc(Cl)c(Cl)c1)C1C2CNCC21.Cl` (stereo not drawn), for which, in assay [1] (vehicle de-ionized water), the “% decrease in immobility time (dose 32 mg/kg)” value (shortened to “% decrease in immobility time”) is given as 80.0 ± 3.8^z %.
Same read-out and setting: next, `CON=CC1C2CNCC12c1ccc(Cl)c(Cl)c1.Cl` (stereo not drawn): 87.5 ± 4.1^z %.
Consider `CCON=CC1C2CNCC12c1ccc(Cl)c(Cl)c1.Cl` (stereo not drawn), for which, in assay [1] (suspended in 0.25% CMC), the “% decrease in immobility time” value turned out to be 83.1 ± 9.6%.
In the case of `CON=CC1C2CNCC12c1ccc(Cl)cc1.Cl` (stereo not drawn), in assay [1] (vehicle de-ionized water), the “% decrease in immobility time” value is 50.2 ± 14.7^z %.
The same measure, in the same setting: as for `CON=CC1C2CNCC12c1ccc(F)cc1.Cl` (stereo not drawn), the figure is 55.1 ± 13.0^z %.
Take `CON=CC1C2CNCC12c1ccccc1.Cl` (stereo not drawn): in assay [1] (suspended in 0.25% CMC), the “% decrease in immobility time” value was found to be 60.4 ± 12.6%.
Turning to `CON=C(c1ccccc1)C1C2CNCC21` (stereo not drawn), the inhibition at 0.1 µM in assay [2] (setting [5]) was 18.4%. The inhibition at 1 µM in assay [2] (setting [6]) is 27.5%.
Turning to `CON=C(c1ccc2ccccc2c1)C1C2CNCC21` (stereo not drawn), the inhibition at 0.1 µM in assay [3] (setting [7]) came out at 21.8%; in assay [2] (setting [5]) it was 77.2%. In addition, the figures for the inhibition at 1 µM in assay [3] (setting [8]) and in assay [2] (setting [6]) were 60.5% and 93.4%, respectively.
For the molecule `ON=C(c1ccc(Cl)c(Cl)c1)C1C2CNCC21` (stereo not drawn), the inhibition at 1 µM in assay [3] (setting [8]) amounted to 25.1%; in assay [4] (setting [9]), 49.6%; in assay [2] (setting [6]), 74.8%. In addition, the inhibition at 0.1 µM in assay [2] (setting [5]) was found to be 29.8%.
Turning to `CCON=C(c1ccc(Cl)c(Cl)c1)C1C2CNCC21` (stereo not drawn), the inhibition at 0.1 µM in assay [3] (setting [7]) is 18.2%; in assay [2] (setting [5]), 49.8%. Moreover, the inhibition at 1 µM in assay [3] (setting [8]) was 61.5%; in assay [4] (setting [9]), 71%; in assay [2] (setting [6]) it was 87.5%.
Turning to `C=CCON=C(c1ccc(Cl)c(Cl)c1)C1C2CNCC21` (stereo not drawn), the inhibition at 0.1 µM in assay [3] (100 nM test compound, read-out: NET % Nisoxetine displacement 100 nM) amounted to 14.3%; in assay [2] (setting [12]), 72.6%. Moreover, the inhibition at 1 µM was 71.3% in assay [3] (setting [10]), 78% in assay [4] (setting [11]) and 94.4% in assay [2] (setting [13]).
For `Clc1ccc(C(=NOCC2CC2)C2C3CNCC32)cc1Cl` (stereo not drawn), the inhibition at 1 µM in assay [3] (setting [10]) was 33.9%; in assay [4] (setting [11]), 68.7%; in assay [2] (setting [13]), 95.5%. In addition, in assay [2] (setting [12]), the inhibition at 0.1 µM turned out to be 69.8%.
`Clc1ccc(C(=NOc2ccccc2)C2C3CNCC32)cc1Cl` (stereo not drawn): the inhibition at 1 µM in assay [3] (setting [10]) was found to be 19.1%; in assay [2] (setting [13]) it was 61.4%.
`Clc1ccc(C(=NOCc2ccccc2)C2C3CNCC32)cc1Cl` (stereo not drawn): the inhibition at 1 µM in assay [3] (setting [10]) worked out at 27.2%; in assay [4] (setting [11]), 36%; in assay [2] (setting [13]), 85.8%. The inhibition at 0.1 µM in assay [2] (setting [12]) is 30.4%.
Consider `CON=CC1C2CNCC12c1ccc(Cl)c(Cl)c1` (stereo not drawn), for which the inhibition at 0.1 µM stood at 37.4% in assay [3] (setting [7]), 30.6% in assay [4] and 65% in assay [2] (setting [5]). Also, the inhibition at 1 µM is 82.3% in assay [3] (setting [8]), 66.3% in assay [4] (setting [9]) and 91.8% in assay [2] (setting [6]).
Regarding `CCON=CC1C2CNCC12c1ccc(Cl)c(Cl)c1` (stereo not drawn), the inhibition at 0.1 µM amounted to 16.7% in assay [4] and 83.7% in assay [2] (setting [5]). In addition, the inhibition at 1 µM in assay [4] (setting [9]) is 71.8%; in assay [2] (setting [6]) it was 94.4%.
With `Clc1ccc(C23CNCC2C3C=NOCc2ccccc2)cc1Cl` (stereo not drawn), the values for the inhibition at 0.1 µM in assay [3] (setting [7]), in assay [4] and in assay [2] (setting [5]) were 34.6%, 27% and 23.3%, respectively. Also, the inhibition at 1 µM in assay [3] (setting [8]) amounted to 73.6%; in assay [4] (setting [9]), 39%; in assay [2] (setting [6]), 89%.
In the case of `Fc1ccc(CON=CC2C3CNCC23c2ccc(Cl)c(Cl)c2)cc1` (stereo not drawn), the inhibition at 1 µM turned out to be 74.2% in assay [3] (setting [10]), 40.9% in assay [4] (setting [11]) and 88.8% in assay [2] (setting [13]). For the same molecule, the inhibition at 0.1 µM in assay [2] (setting [12]) worked out at 12.5%.
On to `CON=CC1C2CNCC12c1ccc(Cl)cc1` (stereo not drawn), for which the inhibition at 1 µM in assay [3] (setting [8]) worked out at 54.5%; in assay [4] (setting [9]), 29.9%; in assay [2] (setting [6]) it was 85.6%. Besides, the inhibition at 0.1 µM in assay [2] (setting [5]) came to 37.8%.
For `CON=CC1C2CNCC12c1ccc(F)cc1` (stereo not drawn), the inhibition at 0.1 µM in assay [2] (setting [5]) stood at 43.5%. The inhibition at 1 µM in assay [2] (setting [6]) worked out at 85.1%.
In the same order, the values of `CON=CC1C2CNCC12c1ccccc1` (stereo not drawn) are 39.2% and 79.9%.
In the case of `CON=C(c1ccc(Cl)c(Cl)c1)C1C2CNCC21.Cl` (stereo not drawn) [drawing 66], the inhibition at 0.1 µM in assay [3] (setting [7]) stood at 15.6%; in assay [2] (setting [5]), 43.1%. Besides, the inhibition at 1 µM worked out at 75.6% in assay [3] (setting [8]) and 84.8% in assay [2] (setting [6]). For the same molecule, the “DAT % WIN 35428 displacement 1 μM” value in assay [4] (1 μM test compound) is given as 32.76%.
Regarding `CON=C(c1ccc(Cl)c(Cl)c1)C1C2CNCC21` (stereo not drawn) [drawing 72], in assay [3] (100 nM test compound), the “NET % Nisoxetine displacement 100 nM” value was 24.48%. In addition, the “NET % Nisoxetine displacement 1 μM” value in assay [3] (1 μM test compound) is recorded as 75.97%. In addition, in assay [4] (1 μM test compound), the “DAT % WIN 35428 displacement 1 μM” value turned out to be 64.58%. Moreover, the inhibition at 0.1 µM in assay [4] worked out at 28.1%. The “SERT % Citalopram displacement 100 nM” value in assay [2] (100 nM test compound) is listed as 50.25%. For the same molecule, in assay [2] (1 μM test compound), the “SERT % Citalopram displacement 1 μM” value is given as 90.07%.
